Each structure is given as a SMILES string. Values joined by “and” are separate entries in the source; they are usually repeats but may differ in a detail not shown here. Equal entries are not always repeated. Inconclusive results and toxic doses are left out.

This test concerns BDF1 mice, P388 leukemia ip, median survival T/C. In words: NCI In Vivo Anticancer Drug Screen. Data for tumor model P388 Leukemia (intraperitoneal) in B6D2F1 (BDF1) mice. To be noted: endpoint: median survival time, higher = longer survival. The method, boiled down: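 Transplantable tumour in mice; compound vs vehicle dosing; survival scored; ratio of treated to control reported.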

The mark [1] stands for this setting: dose: 12.5 mg/kg/injection, schedule: Q01DX009 (ip), vehicle: saline.
[2] abbreviates: dose: 25.0 mg/kg/injection, schedule: Q01DX009 (ip), vehicle: saline.
Setting [3] is: dose: 50.0 mg/kg/injection, schedule: Q01DX009 (ip), vehicle: saline.
Setting [4] is: dose: 100.0 mg/kg/injection, schedule: Q01DX009 (ip), vehicle: saline.
Where [5] appears, read: dose: 200.0 mg/kg/injection, schedule: Q01DX009 (ip), vehicle: saline.

In the case of `Nc1ncnc2c1nnn2C1OC(CO)C(O)C1O` (stereo not given), the T/C runs as follows: (dose: 10.0 mg/kg/injection, schedule: Q01DX009 (ip), vehicle: Klucel (hydroxypropylcellulose) (HPC)) 150 % of control; (dose: 15.0 mg/kg/injection, schedule: Q01DX009 (ip), vehicle: Klucel (hydroxypropylcellulose) (HPC)) 160 % of control; (dose: 18.0 mg/kg/injection, schedule: Q01DX009 (ip), vehicle: Klucel (hydroxypropylcellulose) (HPC)) 161 % of control; (dose: 24.0 mg/kg/injection, schedule: Q01DX009 (ip), vehicle: Klucel (hydroxypropylcellulose) (HPC)) 96 % of control; (dose: 27.0 mg/kg/injection, schedule: Q01DX009 (ip), vehicle: Klucel (hydroxypropylcellulose) (HPC)) 170 % of control; (dose: 28.0 mg/kg/injection, schedule: Q01DX009 (ip), vehicle: Klucel (hydroxypropylcellulose) (HPC)) 170 % of control. In addition, the T/C was 99 % of control (dose: 35.0 mg/kg/injection, schedule: Q01DX009 (ip), vehicle: Klucel (hydroxypropylcellulose) (HPC)); 104 % of control (dose: 40.0 mg/kg/injection, schedule: Q01DX009 (ip), vehicle: Klucel (hydroxypropylcellulose) (HPC)); 170 % of control (dose: 42.0 mg/kg/injection, schedule: Q01DX009 (ip), vehicle: Klucel (hydroxypropylcellulose) (HPC)); 107 % of control (dose: 53.0 mg/kg/injection, schedule: Q01DX009 (ip), vehicle: Klucel (hydroxypropylcellulose) (HPC)); 91 % of control (dose: 60.0 mg/kg/injection, schedule: Q01DX009 (ip), vehicle: Klucel (hydroxypropylcellulose) (HPC)); 115 % of control (dose: 63.0 mg/kg/injection, schedule: Q01DX009 (ip), vehicle: Klucel (hydroxypropylcellulose) (HPC)). Also, the T/C (dose: 79.0 mg/kg/injection, schedule: Q01DX009 (ip), vehicle: Klucel (hydroxypropylcellulose) (HPC)) is 102 % of control.

For `CCc1nc2ccccc2c(=O)n1C`, the T/C was 101 % of control (dose: 50.0 mg/kg/injection, schedule: Q01DX009 (ip), vehicle: saline with Tween-80) and 101 % of control (dose: 200.0 mg/kg/injection, schedule: Q01DX009 (ip), vehicle: saline with Tween-80).

As for `OCCN1CCN(CC/C=C2/c3ccccc3Sc3ccc(Cl)cc32)CC1`, the T/C (dose: 5.56 mg/kg/injection, schedule: Q01DX009 (ip), vehicle: saline) was 108 % of control; the T/C (dose: 8.33 mg/kg/injection, schedule: Q01DX009 (ip), vehicle: saline) was 108 % of control; the T/C under setting [1] is 120 % of control; the T/C under setting [2] was 113 % of control; the T/C (dose: 33.0 mg/kg/injection, schedule: Q04DX003 (ip), vehicle: saline) is 150 % of control.

On to `Cn1ncc2c(N)ncnc21`, for which the T/C by setting is: (dose: 0.75 mg/kg/injection, schedule: Q01DX009 (ip), vehicle: Klucel (hydroxypropylcellulose) (HPC)) 100 % of control; (dose: 1.5 mg/kg/injection, schedule: Q01DX009 (ip), vehicle: Klucel (hydroxypropylcellulose) (HPC)) 100 % of control; (dose: 3.0 mg/kg/injection, schedule: Q01DX009 (ip), vehicle: Klucel (hydroxypropylcellulose) (HPC)) 109 % of control; (dose: 6.0 mg/kg/injection, schedule: Q01DX009 (ip), vehicle: Klucel (hydroxypropylcellulose) (HPC)) 122 % of control.

For `CCN(CC)CCCC(C)NCCCN` (stereo not given), the T/C is 96 % of control under setting [3], 96 % of control under setting [4] and 94 % of control under setting [5].

As to `CC(=O)NNC(=O)c1ccccn1`, the T/C (dose: 4.0 mg/kg/injection, schedule: Q03HX024 (ip), vehicle: saline) was 100 % of control; the T/C (dose: 8.0 mg/kg/injection, schedule: Q03HX008 (ip), vehicle: saline) is 100 % of control; the T/C (dose: 8.0 mg/kg/injection, schedule: Q03HX016 (ip), vehicle: saline) was 95 % of control; the T/C (dose: 8.0 mg/kg/injection, schedule: Q03HX024 (ip), vehicle: saline) is 90 % of control; the T/C (dose: 16.0 mg/kg/injection, schedule: Q03HX008 (ip), vehicle: saline) was 90 % of control; the T/C (dose: 16.0 mg/kg/injection, schedule: Q03HX016 (ip), vehicle: saline) was 90 % of control. Moreover, the T/C (dose: 16.0 mg/kg/injection, schedule: Q03HX024 (ip), vehicle: saline) is 100 % of control; the T/C (dose: 19.0 mg/kg/injection, schedule: Q01DX010 (ip), vehicle: water) was 95 % of control; the T/C (dose: 32.0 mg/kg/injection, schedule: Q01DX009 (ip), vehicle: saline) was 90 % of control; the T/C (dose: 32.0 mg/kg/injection, schedule: Q01DX009 (oral), vehicle: saline) is 90 % of control; the T/C (dose: 32.0 mg/kg/injection, schedule: Q03HX008 (ip), vehicle: saline) was 95 % of control; the T/C (dose: 32.0 mg/kg/injection, schedule: Q03HX016 (ip), vehicle: saline) is 90 % of control. The T/C (dose: 32.0 mg/kg/injection, schedule: Q03HX024 (ip), vehicle: saline) is 90 % of control; the T/C (dose: 32.0 mg/kg/injection, schedule: Q04DX003 (ip), vehicle: saline) was 90 % of control; the T/C (dose: 38.0 mg/kg/injection, schedule: Q01DX010 (ip), vehicle: water) was 100 % of control; the T/C (dose: 50.0 mg/kg/injection, schedule: Q01DX009 (ip), vehicle: water) is 113 % of control; the T/C (dose: 50.0 mg/kg/injection, schedule: Q01DX009 (oral), vehicle: water) is 109 % of control; the T/C (dose: 64.0 mg/kg/injection, schedule: Q01DX001 (ip), vehicle: saline) was 90 % of control. For the same molecule, the T/C reads like this: (dose: 64.0 mg/kg/injection, schedule: Q01DX001 (oral), vehicle: saline) 90 % of control; (dose: 64.0 mg/kg/injection, schedule: Q01DX009 (ip), vehicle: saline) 90 % of control; (dose: 64.0 mg/kg/injection, schedule: Q01DX009 (oral), vehicle: saline) 90 % of control; (dose: 64.0 mg/kg/injection, schedule: Q03HX008 (ip), vehicle: saline) 95 % of control; (dose: 64.0 mg/kg/injection, schedule: Q03HX016 (ip), vehicle: saline) 90 % of control; (dose: 64.0 mg/kg/injection, schedule: Q03HX024 (ip), vehicle: saline) 90 % of control. Further, the T/C was 100 % of control (dose: 64.0 mg/kg/injection, schedule: Q04DX003 (ip), vehicle: saline); 90 % of control (dose: 64.0 mg/kg/injection, schedule: Q08DX002 (ip), vehicle: saline); 100 % of control (dose: 75.0 mg/kg/injection, schedule: Q01DX010 (ip), vehicle: water); 109 % of control (dose: 100.0 mg/kg/injection, schedule: Q01DX009 (oral), vehicle: water); 100 % of control (dose: 128.0 mg/kg/injection, schedule: Q01DX001 (ip), vehicle: saline); 95 % of control (dose: 128.0 mg/kg/injection, schedule: Q01DX001 (oral), vehicle: saline). The T/C is, setting by setting: (dose: 128.0 mg/kg/injection, schedule: Q01DX009 (ip), vehicle: saline) 95 % of control; (dose: 128.0 mg/kg/injection, schedule: Q01DX009 (oral), vehicle: saline) 90 % of control; (dose: 128.0 mg/kg/injection, schedule: Q04DX003 (ip), vehicle: saline) 90 % of control; (dose: 128.0 mg/kg/injection, schedule: Q08DX002 (ip), vehicle: saline) 90 % of control; (dose: 256.0 mg/kg/injection, schedule: Q01DX001 (ip), vehicle: saline) 90 % of control; (dose: 256.0 mg/kg/injection, schedule: Q01DX001 (oral), vehicle: saline) 90 % of control. Besides, the T/C (dose: 256.0 mg/kg/injection, schedule: Q04DX003 (ip), vehicle: saline) was 95 % of control.

Regarding `NCC1OC(OC2C(N)CC(N)C(O)C2OC2OC(CO)C(O)C2O)C(N)C(O)C1O` (stereo not given), the T/C is 104 % of control under setting [1]; 111 % of control under setting [2]; 111 % of control under setting [3]; 110 % of control and 114 % of control and 120 % of control under setting [4]; 105 % of control (dose: 150.0 mg/kg/injection, schedule: Q01DX009 (ip), vehicle: saline); 119 % of control under setting [5]. Also, the T/C is, setting by setting: (dose: 225.0 mg/kg/injection, schedule: Q01DX009 (ip), vehicle: saline) 99 % of control; (dose: 400.0 mg/kg/injection, schedule: Q01DX009 (ip), vehicle: saline) 99 % of control.

As to `CC(=O)/C(N=Nc1ccccc1)=C(\C)O`, the T/C was 100 % of control (dose: 25.0 mg/kg/injection, schedule: Q01DX009 (sc), vehicle: olive oil, sesame oil, peanut oil); 96 % of control (dose: 50.0 mg/kg/injection, schedule: Q01DX009 (sc), vehicle: olive oil, sesame oil, peanut oil); 112 % of control (dose: 100.0 mg/kg/injection, schedule: Q01DX009 (sc), vehicle: olive oil, sesame oil, peanut oil).

These data come from PubChem BioAssay AID328 (DTP/NCI, 2004).
